Patent US20200179273A1, “LONG-ACTION IMPLANT FOR TREATMENT OF INFECTIOUS DISEASES” (Merck Sharp & Dohme Corp., priority 2017, published 2020)
Converted amounts (≈) assume the structure as drawn. Like-named read-outs stand apart in the source and are kept apart here.

Key:
[1] = Solubility of anti-tuberculosis compounds in PBS; format: physicochemical; conditions: aqueous buffer
[2] = In vitro drug release from compressed implants; format: physicochemical; conditions: compressed implant 80wt % drug, PBS with 0.2 or 5wt % SDS, 37° C., 50 rpm
Protocol: The in vitro release rate of the drug was determined by incubating individual implants in a glass vial with phosphate buffered saline (PBS) containing 0.2 or 5wt % sodium dodecyl sulfate (SDS) at 37° C., and 50 rpm shaking in an Innova 42 incubator. The volume of media was sufficient to maintain sink conditions. Sink conditions are defined as the drug concentration maintained at or below ⅓ of the maximum solubility. Samples were removed at selected time points, and centrifuged at 20,800×g for 8 min. The supernatant was analyzed by HPLC.

[3] = In vivo drug release: drug concentration in blood plasma after subcutaneous implants; parameters: species or system Wistar Han rat; conditions: rat, three compressed implants subcutaneous; for concentration at 0.167 days / concentration at 0.25 days / concentration at 1 day / concentration at 2 days / concentration at 9 days / concentration at 16 days / concentration at 30 days / concentration at 44 days / concentration at 0.083 days / concentration at 58 days: Wistar Han, plasma, sc; for concentration at 0.167 days / concentration at 0.25 days / concentration at 1 day / concentration at 2 days / concentration at 9 days / concentration at 16 days / concentration at 30 days / concentration at 44 days: 60 mg/animal; for concentration at 0.083 days / concentration at 58 days: 60 mg
Text: For each implantation, a Wistar Han rat was anesthetized using isoflurane to effect prior to subcutaneous dose administration. Using a trocar needle, three implants from each formulation example above were placed subcutaneously in the intrascapular region of a rat. Three animals were used for each formulation. Animals were monitored until recovered. At indicated time points, samples of blood were obtained from anesthetized animals (using isoflurane) and processed to plasma for determination of drug concentration by LC/MS. Results are shown in the below table (Table 4).

[4] = dissolution media PBS, 37° C., read-out: Solubility at 37° C.
[5] = in phosphate buffered saline (PBS), read-out: aqueous solubility

SMILES | solubility [1, 4] [µg/mL] | solubility [1, 5] [µg/mL] | Cumulative in vitro drug release Avg. ([2]; 1 day) [%] | Cumulative in vitro drug release Avg. ([2]; 11 days) [%] | concentration at 0.167 days ([3]; 0.167 days) [nM] | concentration at 0.25 days ([3]; 0.25 days) [nM] | concentration at 1 day ([3]; 1 day) [nM] | concentration at 2 days ([3]; 2 days) [nM] | concentration at 9 days [3] [nM] | concentration at 16 days [3] [nM] | concentration at 30 days [3] [nM] | concentration at 44 days [3] [nM] | concentration at 0.083 days ([3]; 0.083 days) [nM] | concentration at 58 days [3] [nM] | Cumulative in vitro drug release Avg. ([2]; 20 days) [%] | Drug concentration in blood plasma Avg. ([3]; 0.083 days) | Drug concentration in blood plasma Avg. ([3]; 0.167 days) | Drug concentration in blood plasma Avg. ([3]; 0.25 days) | Drug concentration in blood plasma Avg. ([3]; 1 day) | Drug concentration in blood plasma Avg. ([3]; 2 days)
CO[C@H]1/C=C/O[C@@]2(C)Oc3c(C)c(O)c4c(c3C2=O)C2=NC3(CCN(CC(C)C)CC3)NC2=C(NC(=O)/C(C)=C\C=C\[C@H](C)[C@H](O)[C@@H](C)[C@@H](O)[C@@H](C)[C@H](OC(C)=O)[C@@H]1C)C4=O [rifabutin] | 101 (≈ 119 µM) | < 200 | 40.6 | 107.7 | 164 | 244 | 209 | 182 | 119 | 75.9 | 69.3 | 42.3 | 81.9 | 38.3 |  |  |  |  |  | 
C[C@]1(COc2ccc(N3CCC(Oc4ccc(OC(F)(F)F)cc4)CC3)cc2)Cn2cc([N+](=O)[O-])nc2O1 [delamanid] |  |  | 20.3 | 26.8 |  |  |  |  |  |  |  |  |  |  | 38.3 |  |  |  |  | 
COc1nc2ccc(Br)cc2cc1[C@@H](c1ccccc1)[C@@](O)(CCN(C)C)c1cccc2ccccc12 [bedaquiline] | 129 (≈ 232 µM) | < 200 | 10.9 | 41.4 |  |  |  |  | 81 | 63.6 | 51.7 | 70.3 |  | 60.2 | 57.2 | BLQ | BLQ | BLQ | BLQ | BLQ
CO[C@H]1/C=C/O[C@@]2(C)Oc3c(C)c(O)c4c(O)c(c(/C=N/N5CCN(C6CCCC6)CC5)c(O)c4c3C2=O)NC(=O)/C(C)=C\C=C\[C@H](C)[C@H](O)[C@@H](C)[C@@H](O)[C@@H](C)[C@H](OC(C)=O)[C@@H]1C [rifapentine] | 134 (≈ 153 µM) | < 200 |  |  | 803 | 1250 | 3530 | 5210 | 5980 | 2260 | 1010 | 1460 | 630 | 477 |  |  |  |  |  | 
